PMC7822874, “Chemoprotective antimalarials identified through quantitative high-throughput screening of Plasmodium blood and liver stage parasites” (Scientific Reports, 2021)

Test system: Plasmodium falciparum Dd2 asexual blood stage parasites
Assay: microbe, parasite or virus in culture
Parameters: species or system Plasmodium falciparum Dd2 in human erythrocytes; single determination (one 11-point concentration-response curve)
Conditions: Plasmodium falciparum, DD2, Erythrocyte, 72 h; read-out: AC50

| Compound | AC50 |
| --- | --- |
| COc1ccc(C(C)NC(S)=NC2CCCC2)cc1OC (centres unmarked) [MLS000581238-01] | 6.68 µM |
| CCOc1ccc(C2C(C(=O)Nc3ccccc3)=C(C)N=c3sc(=Cc4cccc(OCC(=O)O)c4)c(=O)n32)cc1 (centres unmarked) [MLS000705052-01] | 5.31 µM |
| Cc1ccc(/C=N/NC(=O)c2nnn(-c3nonc3N)c2-c2ccc3c(c2)OCO3)s1 [MLS001142659-01] | 0.841 µM |
| COC(=O)[C@H](Cc1ccc(OC)cc1)NC(=O)[C@H]1CN(C(=O)c2ccc(N(C)C)cc2)CCN1C(=O)c1cccs1 [NCGC00398661-01] | 0.188 µM |
| N=c1c2c(n(Cc3ccc(F)cc3)c3c1CCC3)CCC2 [MLS000107591-01] | 3.35 µM |
| CC1CC(C)CN(C(=O)c2ccc3ccccc3c2)C1 (centres unmarked) [MLS001161774-01] | 2.37 µM |
| CCOC(=O)c1ccc2c(c1)N(C(CC)C(=O)Nc1ccccc1OC)C(=O)c1ccccc1S2 (centres unmarked) [NCGC00132065-01] | 9.44 µM |
| O=S(=O)(c1ccc(F)cc1)N1CCN(/C(S)=N/CCc2ccccc2)CC1 [MLS001035761-01] | 5.96 µM |
| O[C@]1(c2ccccc2)CCN(Cc2ccco2)C[C@H]1N1CCCC1 [NCGC00442602-01] | 8.41 µM |
| Cc1nn2c(c1-c1ccccc1[S+](C)(=O)[O-])N(CCC(C)C)CCC2 [NCGC00420381-01] | 9.68 µM |
| CCOc1nc(N=C(N)N)nc2c(C)cccc12 [MLS000570610-01] | 10.6 µM |
| COc1ccc(C(O)(CCC(C)C)C(CN2CCOCC2)c2ccccc2)cc1 (centres unmarked) [MLS001198958-01] | 5.31 µM |
| Nc1nonc1-n1nnc(C(=O)N/N=C/c2ccc(Cl)cc2)c1-c1ccc2c(c1)OCO2 [MLS001142698-01] | 0.376 µM |
| COc1ccc(CCC(=O)N2Cc3ccccc3OC3(CCN(C)CC3)C2)cc1 [NCGC00456460-01] | 7.5 µM |
| COc1ccc(C(=O)N2CCC3(CC2)OC(=O)N(Cc2ccc(O)cc2)C3(C)c2ccccc2)cn1 (centres unmarked) [NCGC00415507-01] | 6.68 µM |
| COc1ccc(Nc2ccccc2NC(=O)c2ccccc2Br)cc1 [MLS001233685-01] | 5.96 µM |

| Compound | AC50 |
| --- | --- |
| CCN1CCN(C(=O)c2ccc3c(c2)N(Cc2c(F)cccc2Cl)C(=O)c2ccccc2S3)CC1 [NCGC00108184-01] | 0.00842 µM |
| CCOC(=O)c1cnn(-c2ccc(C(=O)Nc3ccc(C(C)=O)cc3)cc2)c1N [NCGC00137680-01] | 4.73 µM |
| COCCN1C(=O)c2ccccc2C(C(=O)Nc2nc3ccccc3[nH]2)C12CCCC2 (centres unmarked) [NCGC00423488-01] | 4.22 µM |
| COc1ccc(CC(=O)NCc2cc(C)cc3c(C)c(C)[nH]c23)c(OC)c1 [NCGC00431513-01] | 8.41 µM |
| Cc1cccc2cc(CN(Cc3ccco3)C(c3nnnn3CCc3ccccc3)C(C)C)c(O)nc12 (centres unmarked) [MLS000072528-01] | 10.6 µM |
| CCCCNC(=O)c1onc(CSc2nc3ccccc3[nH]2)c1C(=O)NCCCC [MLS000561096-01] | 5.31 µM |
| Cc1ccccc1-n1c(=C(C#N)C(=O)Nc2ccccc2)sc(=Cc2ccco2)c1=O [MLS000081502-01] | 5.31 µM |
| c1ccc(Sc2cccc3ccccc23)c(CNC2=NCCN2)c1 [MLS000702748-01] | 13.3 µM |
| CCn1ncc(CN2CCCC23CCN(c2cc(C)nc4ccccc24)CC3)c1C [NCGC00442843-01] | 5.31 µM |
| Cc1noc(C)c1-c1cc2cc(CN(C)C)oc2c(NCc2cccnc2)n1 [NCGC00417547-01] | 1.22 µM |
| O=[N+]([O-])c1ccc([S+](=O)([O-])N2CCn3cccc3C2c2ccc(Br)cc2)cc1 (centres unmarked) [NCGC00137374-01] | 5.96 µM |
| COc1ccc(-n2nc3ccc(NC(=O)c4ccc(-c5cc(Cl)ccc5Cl)o4)cc3n2)cc1 [NCGC00098498-01] | 4.22 µM |
| CCC(=O)NC(N)=Nc1nc(C)c2cc(C)c(C)cc2n1 [MLS000768400-01] | 9.44 µM |
| COc1cc2nc(NCCc3cccc(C)c3)n3nc(-c4ccccc4)nc3c2cc1OC [NCGC00112859-01] | 0.841 µM |
| CN1CCN(C(=O)C(C)(C)Oc2nn(Cc3cccc(Cl)c3)c3ccccc23)CC1 [NCGC00419545-01] | 7.69 µM |
| O=C1CC(c2ccccc2)N(Cc2ccncc2)CCCN(C(=O)Nc2ccccc2F)CCN1 (centres unmarked) [NCGC00467191-01] | 1.68 µM |
